Laboratory results from ChEMBL document CHEMBL2363022, “Malaria Box Schistosomiasis Screening Data” (2013).

Experiments:
Type in all cases: functional
Set-up in all cases: scale not given here
Schistosoma mansoni [1] = tested on: Schistosoma mansoni
Schistosoma mansoni [2] = tested on: Schistosoma mansoni; remark: listed apart in the source
Schistosoma mansoni [3] = tested on: Schistosoma mansoni; remark: listed apart in the source

Structure (SMILES)	Toxicity (Schistosoma mansoni [1])	Toxicity (Schistosoma mansoni [2])	Toxicity (Schistosoma mansoni [3])
Nc1ccc(-c2nc3cc(Cc4ccc5[nH]c(-c6ccc(N)cc6)nc5c4)ccc3[nH]2)cc1	1	1	1
COc1cccc(-c2nn(C)c3sc(C(=O)NCCN4CCN(c5ccccc5F)CC4)cc23)c1	0	0	3
COc1ccc(C=C2SC(Nc3ccc(F)cc3)=NC2=O)c(OC)c1	0	0	0
CN1CCN(c2ncnc3c2[nH]c2ccc(Cl)cc23)CC1	0	0	0
COc1ccc(-c2cn3c(C(=O)Nc4ccccc4Cl)c(-c4ccccc4)c4c3n2CCCC4)cc1	0	0	0
COc1cc(C(=O)Nc2nc3c(cc4c5c(cccc53)CC4)s2)cc(OC)c1OC	0	0	0
COC(=O)c1ccc(Cl)c2c1C1C=CCC1C(c1cccc3ccccc13)N2 (stereo not given)	0	0	0
O=C1c2ccccc2-c2nnc(-c3ccc(Br)cc3)cc21	0	0	0
CCOc1cc2c(cc1OCC)C(c1cc(OC)c(O)cc1Cl)NCC2 (stereo not given)	0	0	0
C[n+]1c2ccccc2nc2ccc(NCCO)cc21	0	0	3
Cc1ccc(-c2nc3ccccc3o2)cc1NCc1cc(Cc2ccccc2)ccc1O	0	0	0
Oc1ccc(Cl)cc1CNc1nc2ccccc2[nH]1	0	0	0
Cc1ccc(CSCc2ccc(C(=O)NC3CC3)o2)cc1	0	0	0
O=C(NC1CCN(Cc2ccccc2)CC1)c1cc(-c2ccncc2)nc2ccc(Cl)cc12	0	0	2
COc1ccc(NC(=O)C2c3ccccc3C(=O)N(CC(C)C)C2c2cccs2)cc1Cl (stereo not given)	0	0	0
COc1cccc(C=Cc2nc(=O)c3ccccc3o2)c1OC	0	0	0
Cc1ccc(-c2cc3c(nn2)-c2ccccc2C3=O)cc1	0	0	0
CCOC(=O)c1cnc2ccc(OC)cc2c1NCc1ccccc1	1	0	1
COc1nc(Nc2ccc(C(C)C)cc2)nc(OC)n1	0	0	0
CCn1c(CN2CCN(Cc3ccccc3)CC2)nc2cc(NC(=O)c3cccs3)ccc21	0	0	0
Cc1c(C)n(Cc2ccc(F)cc2)c2ccc(C(=O)NCc3ccco3)cc12	1	2	2
Oc1c(C(Nc2ccccn2)c2cccc(Oc3ccccc3)c2)ccc2cccnc12 (stereo not given)	0	4	4
Cc1cc(Nc2ccc(Cl)cc2)n2nc(C(F)(F)F)nc2n1	0	0	0

Structure (SMILES)	Toxicity (Schistosoma mansoni [1])	Toxicity (Schistosoma mansoni [2])	Toxicity (Schistosoma mansoni [3])
CCOc1ccc(-c2nc(NC(=O)c3cccc(S(C)(=O)=O)c3)sc2C)cc1	0	0	0
COc1ccccc1CNC(=O)C1c2ccccc2C(=O)N(CC(C)C)C1c1cccs1 (stereo not given)	0	0	0
O=C(Nc1ccc(-c2nc3cc(NC(=O)c4ccc(Cl)cc4)ccc3[nH]2)cc1)c1ccc(Cl)cc1	1	0	0
CC1(c2ccccc2)Nc2ccccc2-c2nc3ccccc3n21 (stereo not given)	0	0	0
FC(F)(F)c1cccc(Nc2nc(-c3ccccc3)nc3ncccc23)c1	0	0	0
Cc1ccc(Nc2nc(N)c3ccccc3n2)cc1Cl	2	2	2
O=C(CSc1ccc2nnc(-c3cccc(F)c3)n2n1)Nc1ccc2c(c1)OCO2	0	0	0
COc1cc(SC)ccc1C(=O)N1CCCC(C)C1 (stereo not given)	0	0	0
CCOc1ccccc1CNC(=O)C1c2ccccc2C(=O)N(CC(C)C)C1c1cccs1 (stereo not given)	0	0	4
CCCN(CCC)CC(O)COc1ccccc1C(=O)Nc1ccccc1 (stereo not given)	0	0	0
O=c1c2c([nH]c3ccccc13)CCCC2	0	0	0
CC(C)(C)c1ccc(C(=O)Nc2c3c(nn2-c2cccc(Cl)c2)CSC3)cc1	0	0	0
O=C(Nc1ccc(Cl)cc1C(=O)Nc1ccncc1)c1ccc(Cl)cc1Cl	0	0	0
Cc1[nH]c(-c2ccc(F)cc2)cc1C(=O)NC1CCN(Cc2ccccc2)CC1	0	0	3
CCOc1cc(CNC(C)C(O)c2ccccc2)cc(Cl)c1OCC (stereo not given)	0	0	1
C=C(C)CCC(C)N1CCC(N2CCC(C(=O)NCCc3ccccc3)CC2)CC1 (stereo not given)	0	0	2
COc1ccc(-c2cc3c(SCC(=O)Nc4cc(C(F)(F)F)ccc4Cl)nccn3n2)cc1	0	0	0
CN(C)c1ccc(C(O)(c2ccc(N(C)C)cc2)c2ccc(N(C)C)cc2)cc1 [METHYLROSANILINE]	2	2	4
O=C(NCC(c1ccsc1)N1CCCCCC1)c1ccc(C(F)(F)F)cc1 (stereo not given)	0	0	0
Cc1ccc(S(=O)(=O)c2c(COC(=O)c3cccc(C)c3)c(-c3ccccc3)nn2C)cc1	0	0	0
CCOc1ccc(CN2CCN(CC(O)COc3ccc(OCC(O)CN4CCN(Cc5ccc(OCC)cc5)CC4)cc3)CC2)cc1 (stereo not given)	3	4	4
CCOc1ccccc1CN1CCc2nc3cc(C(C)(C)C)nn3c(O)c2C1	0	2	2
